{"source": "patent US9981044B2", "about": "“Activation of adaptive immune processes for the treatment of cancers and infectious diseases” (Susavion Biosciences, Inc., priority 2014, dated 2018)", "molecules": {"B1": {"name": "IFNγ: cytokine used as comparator treatment, 100 ng/mL in phagocytosis test (protein, UniProt P01579 24-161, looked up)", "Interferon gamma": "QDPYVKEAENLKKYFNAGHSDVADNGTLFLGILKNWKEESDRKIMQSQIVSFYFKLFKNFKDDQSIQKSVETIKEDMNVKFFNSNKKKRDDFEKLTNYSVTDLNVQRKAIHELIQVMAELSPAAKTGKRKRSQMLFRG"}}, "key": {"[1]": {"system": "ovarian cancer cell line ID8", "experiment": "Survival of mice implanted with ID8 cells", "type": "in vivo, C57Bl/6 mice", "experimental": "Tumors were allowed to progress for 45 days before the animal were injected with svD2 every other day.\nFemale C57Bl/6 mice were implanted with ID8 cells. After allowing the cell to develop into tumors for 45 days, the animals received injections of svD2 every other day at a dose of 1 nmol/g body weight or 0.1 nmol/g body weight. Accumulation of ascites was monitored by weight of the animals as the result of expansion of the peritoneal cavity. […] Table 3 summarizes the survival data including a treatment with paclitaxel, which is a standard-of-care chemotherapeutic drug. The animals were given paclitaxel at a dose of 18 mg/kg body weight on days 45, 47 and 49 of the experiment."}, "[2]": {"system": "Human peripheral blood mononuclear cells", "experiment": "Cytokine release by human PBMCs (cytokine antibody array)", "type": "cell-based", "conditions": "4-hour treatment, svD2 100 nM", "experimental": "The polypeptide svD2, synthesized in Example 1 above, was evaluated in terms of a number of biological activities thought to correlate with its effectiveness against cancer."}, "[3]": {"system": "human PBMC cultures", "experiment": "Phagocytosis of opsonized microspheres in human PBMC cultures", "type": "cell-based", "conditions": "for Beads/cell (mean ± SD): treated 20 h (50 nM svD2 or 100 ng/mL IFNγ), challenged 1 h with microspheres opsonized with rabbit antiserum, 15 cells", "experimental": "Whether the peptide svD2 stimulates phagocytosis was studied in the human PBMC cultures. The cells were treated 20 h with vehicle (phosphate-buffered saline, PBS), 50 nM svD2 or 100 ng/mL IFNγ, and then challenged 1 h with microspheres. Cells were fixed with 2% formalin and washed with PBS. Beads in each cell were counted on microscope images, with 15 cells analyzed for each treatment."}, "[4]": {"system": "peritoneal cells", "experiment": "Response of peritoneal cells in mice (flow cytometry)", "type": "in vivo", "conditions": "C57BL/6 mice", "experimental": "The number of cells is indicated as a ratio of the total number of each cell type normalized to the number of cells in untreated control samples.\nTo examine whether svD2 effectively stimulates the immune system in vivo, the peptide was injected subcutaneously on alternate days into Th1-poised C57BL/6 strain mice at a dose of 1 μmole/kg."}, "[5]": {"experiment": "Toxicity in vivo"}, "[6]": {"experiment": "Solubility of the polypeptide", "type": "physicochemical", "excerpt": "svD2 in lyophilized form is a white fluffy powder using trifluoroacetate (TFA) or acetate as a counterion. Net polypeptide content with and without the counter ion was approximately 88% and 73%, respectively. The remainder was likely water of hydration of the highly polar polypeptide. Solubility of the polypeptide in water is high. In the preparation of aqueous pharmaceutical compositions of the polypeptide with any of the pharmaceutically acceptable carriers described above, concentrations of the polypeptide in isotonic saline of 10 mM, and possibly somewhat higher, can be readily achieved. According to representative embodiments, therefore, the polypeptide is administered to a subject suffering from cancer in an aqueous pharmaceutical composition having a polypeptide concentration generally from about 0.1 mM to about 10 mM, typically from about 0.1 mM to about 5 mM, and a pharmaceutically acceptable carrier."}, "[7]": {"conditions": "paclitaxel 18 mg/kg on days 45, 47 and 49"}, "[8]": {"conditions": "svD2 0.1 nmol/g every other day from day 45"}, "[9]": {"conditions": "svD2 1 nmol/g every other day from day 45"}}, "note": "Where a SMILES comes first, the peptide text is derived from it. Bridges are numbered along the chain shown (N, C = ends). Roman numbers before positions name the chains, in order."}
{"molecule": "CC(=O)O[C@H]1C(=O)[C@@]2(C)[C@H]([C@H](OC(=O)c3ccccc3)[C@]3(O)C[C@H](OC(=O)[C@H](O)[C@@H](NC(=O)c4ccccc4)c4ccccc4)C(C)=C1C3(C)C)[C@]1(OC(C)=O)CO[C@@H]1C[C@@H]2O", "note": "[Paclitaxel, paclitaxel, reference compound]", "values": [{"measurement": "Mean survival", "setting": "[1]; [7]", "result": 81.5, "unit": "days"}, {"measurement": "Number of deaths", "setting": "[1]; [7]", "result": 10}]}
{"molecule": "CC(C)[C@H](N)C(=O)N[C@@H](CO)C(=O)N[C@@H](CC(N)=O)C(=O)N[C@@H](CCC(N)=O)C(=O)N[C@@H](Cc1c[nH]cn1)C(=O)NCC(=O)NCC(=O)NCC(=O)N[C@@H](CO)C(=O)NCCCC[C@H](NC(=O)[C@H](CO)NC(=O)CNC(=O)CNC(=O)CNC(=O)[C@H](Cc1c[nH]cn1)NC(=O)[C@H](CCC(N)=O)NC(=O)[C@H](CC(N)=O)NC(=O)[C@H](CO)NC(=O)[C@@H](N)C(C)C)C(=O)NCCCC[C@H](NC(=O)[C@H](CCCCNC(=O)[C@H](CO)NC(=O)CNC(=O)CNC(=O)CNC(=O)[C@H](Cc1c[nH]cn1)NC(=O)[C@H](CCC(N)=O)NC(=O)[C@H](CC(N)=O)NC(=O)[C@H](CO)NC(=O)[C@@H](N)C(C)C)NC(=O)[C@H](CO)NC(=O)CNC(=O)CNC(=O)CNC(=O)[C@H](Cc1c[nH]cn1)NC(=O)[C@H](CCC(N)=O)NC(=O)[C@H](CC(N)=O)NC(=O)[C@H](CO)NC(=O)[C@@H](N)C(C)C)C(N)=O", "note": "[svD2, [(VSNQHGGGS)2K]2K-NH2] (I: H-VSNQHGGGSKK-NH2 / II: H-VSNQHGGGSK / III: H-VSNQHGGGS / IV: H-VSNQHGGGS; amide I:10-IV:C, I:11-II:C, II:10-III:C; N-terminus assumed)", "values": [{"measurement": "Relative level of Eotaxin released", "setting": "[2]", "result": 47}, {"measurement": "Relative level of Eotaxin-2 released", "setting": "[2]", "result": 470}, {"measurement": "Relative level of GM-CSF released", "setting": "[2]", "result": 96}, {"measurement": "Relative level of ICAM-1 released", "setting": "[2]", "result": 70}, {"measurement": "Relative level of IFNγ released", "setting": "[2]", "result": 170}, {"measurement": "Relative level of IL-1a released", "setting": "[2]", "result": 322}, {"measurement": "Relative level of IL-12p70 released", "setting": "[2]", "result": 117}, {"measurement": "Relative level of IL-15 released", "setting": "[2]", "result": 137}, {"measurement": "Relative level of IL-17 released", "setting": "[2]", "result": 21}, {"measurement": "Relative level of IL-21 released", "setting": "[2]", "result": 130}, {"measurement": "Relative level of IP-10 released", "setting": "[2]", "result": 377}, {"measurement": "Relative level of MCP-2 released", "setting": "[2]", "result": 97}, {"measurement": "Relative level of MIG released", "setting": "[2]", "result": 94}, {"measurement": "Relative level of PDGF-BB released", "setting": "[2]", "result": 82}, {"measurement": "Relative level of TIMP-2 released", "setting": "[2]", "result": 285}, {"measurement": "Relative level of TNF-α released", "setting": "[2]", "result": 138}, {"measurement": "Relative level of TNF-β released", "setting": "[2]", "result": 93}, {"measurement": "Stimulation of phagocytic cells", "setting": "[3]; human PBMC cultures, 50 nM svD2, 20 h", "result": "does not significantly stimulate phagocytic cells"}, {"measurement": "Beads/cell (mean ± SD)", "setting": "[3]", "result": "1.3 ± 1.8", "unit": "Beads/cell"}, {"measurement": "Memory B cells in the peritoneal cavity", "setting": "[4]; 1 nmole/g doses, flow cytometry 24 hours after each injection", "result": "increase in memory B cells"}, {"measurement": "Mature immune cells in peritoneal cells", "setting": "[4]; 1 μmole/kg subcutaneously on alternate days, 24 hours after the second injection", "result": "several-fold increases"}, {"measurement": "Changes in mature cell populations (CD3, CD8, NK1.1, CD19, CD69)", "setting": "[4]; 1 μmole/kg subcutaneously, 24 hours after the first injection", "result": "small"}, {"measurement": "Survival rate of mice implanted with ID8 cells", "setting": "[1]; both doses, 1 nmol/g and 0.1 nmol/g body weight", "result": "improved the survival rate"}, {"measurement": "Mean survival", "setting": "[1]; [8]", "result": 74.5, "unit": "days"}, {"measurement": "Number of deaths", "setting": "[1]; [8]", "result": 4}, {"measurement": "Mean survival", "setting": "[1]; [9]", "result": 74, "unit": "days"}, {"measurement": "Number of deaths", "setting": "[1]; [9]", "result": 4}, {"measurement": "Toxicity in treated mice", "setting": "[5]", "result": "No evidence of toxicity"}, {"measurement": "solubility", "setting": "[6]; isotonic saline, saline or isotonic, read-out: Achievable concentration in isotonic saline", "result": "≥ 10", "unit": "mM"}, {"measurement": "Solubility in water", "setting": "[6]; water", "result": "high"}]}
{"molecule": "B1", "values": [{"measurement": "Relative level of IL-21 released", "setting": "[2]", "result": "(IFNγ, 100)"}, {"measurement": "Beads/cell (mean ± SD)", "setting": "[3]", "result": "35.8 ± 12.6", "unit": "Beads/cell"}]}
